Experimental data as given in patent publication US20100184758A1, “BETA CARBOLINE DERIVATIVES AS ANTIDIABETIC COMPOUNDS” (priority 2007, published 2010).

How the values were obtained:
Type in all cases: in vivo, mouse
[1] = system: C57BL/6N mice; assay: Glucose tolerance test in mice; settings: wild type mice containing intact, functional SSTR3
Experimental: (§1) Male C57BL/6N mice (7-12 weeks of age) are housed 10 per cage and given access to normal diet rodent chow and water ad libitum. Mice are randomly assigned to treatment groups and fasted 4 to 6 h. Baseline blood glucose concentrations are determined by glucometer from tail nick blood. Animals are then treated orally with vehicle (0.25% methylcellulose) or test compound. Blood glucose concentration is measured at a set time point after treatment (t=0 min) and mice are then challenged with dextrose intraperitoneally- (2-3 g/kg) or orally (3-5 g/kg). One group of vehicle-treated mice is challenged with saline as a negative control. Blood glucose levels are determined from tail bleeds taken at 20, 40, 60 minutes after dextrose challenge. […] Percent inhibition values for each treatment are generated from the AUC data normalized to the saline-challenged controls. A similar assay may be performed in rats.

[2] = system: SSTR3 knock out mice; assay: Glucose tolerance test in SSTR3 gene knockout mice; settings: oral dose in the range of 1 to 30 mg/kg po
Experimental: as §1
In order to assess the selectivity of blockade of SSTR3, compounds were evaluated in the oral glucose tolerance test (oGTT) described above in mice lacking the gene for a functional SSTR3.

[3] = system: C57BL/6N mice; assay: Oral glucose tolerance test in mice, SSTR3 antagonist combined with DPP-4 inhibitor; settings: suboptimal doses 0.001 to 0.1 mg/kg po with low doses of a DPP-4 inhibitor such as sitagliptin and des-fluoro-sitagliptin
Experimental: Compounds of the present invention were combined with dipeptidyl peptidase-IV (DPP-4) inhibitors in oral glucose tolerance test (oGTT) described above. Male C57BL/6N mice (7-12 weeks of age) were housed 10 per cage and given access to normal rodent chow and water ad libitum. Mice were randomly assigned to treatment groups and fasted 4 to 6 h. Baseline blood glucose concentrations were determined by glucometer from tail nick blood. […] Blood glucose concentration was measured at a set time point after treatment (t=0 min) and mice were then challenged with dextrose intraperitoneally (2-3 g/kg) or orally (3-5 g/kg). One group of vehicle-treated mice was challenged with saline as a negative control. Blood glucose levels were determined from tail bleeds taken at 20, 40, 60 min after dextrose challenge. […] Percent inhibition values for each treatment were generated from the AUC data normalized to the saline-challenged controls.

SMILES | inhibition of glucose excursion in oGTT [1] | inhibition of glucose excursion in oGTT [2] | activity in oGTT in combination with a DPP-4 inhibitor versus alone [3]
Cc1nc(C2N[C@@H](c3nc(-c4ccc(F)cc4)c[nH]3)Cc3c2[nH]c2ccccc32)no1 (stereo partly drawn) [Example 17, (3R)-3-[4-(4-Fluorophenyl)-1H-imidazol-2-yl]-1-(5-methyl-1,2,4-oxadiazol-3-yl)-2,3,4,9-tetrahydro-1H-β-carboline] | inhibit glucose excursion | failed to significantly inhibit glucose excursion | –
CCOCC1(c2cnn(C)c2)N[C@@H](c2nc(-c3ccc(F)cc3)c[nH]2)Cc2c1[nH]c1ccccc21 (stereo partly drawn) [Example 20, (3R)-[4-(4-Fluorophenyl)-1H-imidazol-2-yl]-1-(ethoxymethyl)-1-(1-methyl-1H-pyrazol-4-yl)-2,3,4,9-tetrahydro-1H-β-carboline] | inhibit glucose excursion | failed to significantly inhibit glucose excursion | more active in combination with low doses of a DPP-4 inhibitor
Cc1nc(C2(c3cnn(C)c3)N[C@@H](c3nc(-c4ccc(F)cc4)c[nH]3)Cc3c2[nH]c2ccccc32)no1 (stereo partly drawn) [Example 21, (3R)-[4-(4-Fluorophenyl)-1H-imidazol-2-yl]-1-(5-methyl-1,2,4-oxadiazol-3-yl)-1-(1-methyl-1H-pyrazol-4-yl)-2,3,4,9-tetrahydro-1H-β-carboline] | inhibit glucose excursion | – | –
